Test results: ChEMBL document CHEMBL1201862, “PubChem BioAssay data set” (2004)
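Grown in 96-well plates, cells were treated for 48 hours with each compound at five concentrations. Insufficient inhibition: endpoint recorded as highest concentration tested. GI50 = concentration required for 50% inhibition of growth.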 Active and inactive are the calls of the source. Rule as the data show it: active = GI50 up to about 1.1 µM and inactive = higher.

Columns and labels:
Test in all cases: NCI-60 cell line screen, 48 h
RPMI-8226 = tested on: RPMI-8226
T47D = tested on: T47D
ACHN = tested on: ACHN
SW-620 = tested on: SW-620
MDA-N = tested on: MDA-N
OVCAR-4 = tested on: OVCAR-4
BT-549 = tested on: BT-549
MDA-MB-435 = tested on: MDA-MB-435
SF-539 = tested on: SF-539
U-251 = tested on: U-251
A498 = tested on: A498
KM12 = tested on: KM12
OVCAR-3 = tested on: OVCAR-3
OVCAR-5 = tested on: OVCAR-5
SK-MEL-28 = tested on: SK-MEL-28
CCRF-CEM = tested on: CCRF-CEM
DU-145 = tested on: DU-145
SNB-19 = tested on: SNB-19
UACC-257 = tested on: UACC-257
786-0 = tested on: 786-0

SMILES	GI50 (RPMI-8226)	GI50 (T47D)	GI50 (ACHN)	GI50 (SW-620)	GI50 (MDA-N)	GI50 (OVCAR-4)	GI50 (BT-549)	GI50 (MDA-MB-435)	GI50 (SF-539)	GI50 (U-251)	GI50 (A498)	GI50 (KM12)	GI50 (OVCAR-3)	GI50 (OVCAR-5)	GI50 (SK-MEL-28)	GI50 (CCRF-CEM)	GI50 (DU-145)	GI50 (SNB-19)	GI50 (UACC-257)	GI50 (786-0)
CCOP(=O)(/C=C/n1ccc(=O)[nH]c1=O)OCC	> 100 µM (inactive)	> 100 µM (inactive)	> 100 µM (inactive)	> 100 µM (inactive)	> 100 µM (inactive)	> 100 µM (inactive)	> 100 µM (inactive)	> 100 µM (inactive)	> 100 µM (inactive)	> 100 µM (inactive)	> 100 µM (inactive)	> 100 µM (inactive)	> 100 µM (inactive)	> 100 µM (inactive)	> 100 µM (inactive)	> 100 µM (inactive)	> 100 µM (inactive)	> 100 µM (inactive)	> 100 µM (inactive)	> 100 µM (inactive)
CC(C)(C)c1ccc(O)c(CN(Cc2cc(C(C)(C)C)ccc2O)C2CCCCC2)c1	8.73 µM (inactive)	16.4 µM (inactive)	20 µM (inactive)	18.3 µM (inactive)	14.7 µM (inactive)	16.9 µM (inactive)	19.8 µM (inactive)	14.5 µM (inactive)	17.3 µM (inactive)	16.5 µM (inactive)	17.5 µM (inactive)	20.5 µM (inactive)	18.2 µM (inactive)	17.7 µM (inactive)	14.5 µM (inactive)	27.5 µM (inactive)	19.5 µM (inactive)	18 µM (inactive)	18.3 µM (inactive)	16 µM (inactive)
C[C@H]1[C@H]2[C@H]3CC[C@@H]4[C@@]5(C)CC[C@H](O)C(C)(C)[C@@H]5CC[C@@]4(C)[C@]3(C)C[C@H](O)[C@@]2(C)C[C@H]2O[C@]21C	19.4 µM (inactive)	16 µM (inactive)	15.2 µM (inactive)	24 µM (inactive)	18.9 µM (inactive)	25.1 µM (inactive)	20.4 µM (inactive)	18.9 µM (inactive)	18.8 µM (inactive)	17.2 µM (inactive)	21.4 µM (inactive)	19.8 µM (inactive)	16.4 µM (inactive)	24.6 µM (inactive)	15.5 µM (inactive)	32.4 µM (inactive)	15.5 µM (inactive)	20.6 µM (inactive)	16.8 µM (inactive)	19.5 µM (inactive)
O=C1N/C(=N/N=C/C(O)C(O)C(O)C(O)CO)N/C1=C\c1cccs1 (stereo not given)	> 100 µM (inactive)	93.8 µM (inactive)	> 100 µM (inactive)	> 100 µM (inactive)	> 100 µM (inactive)	> 100 µM (inactive)	> 100 µM (inactive)	> 100 µM (inactive)	> 100 µM (inactive)	> 100 µM (inactive)	73.1 µM (inactive)	> 100 µM (inactive)	> 100 µM (inactive)	> 100 µM (inactive)	> 100 µM (inactive)	> 100 µM (inactive)	> 100 µM (inactive)	> 100 µM (inactive)	> 100 µM (inactive)	> 100 µM (inactive)
COc1ccc2nc3cc(Cl)ccc3c(NCCNCCCNC(=O)c3cc(-c4ccccc4)nc4ccccc34)c2c1	> 100 µM (inactive)	> 100 µM (inactive)	> 100 µM (inactive)	> 100 µM (inactive)	28.6 µM (inactive)	> 100 µM (inactive)	> 100 µM (inactive)	30.1 µM (inactive)	> 100 µM (inactive)	> 100 µM (inactive)	> 100 µM (inactive)	70.8 µM (inactive)	54.7 µM (inactive)	> 100 µM (inactive)	> 100 µM (inactive)	> 100 µM (inactive)	> 100 µM (inactive)	> 100 µM (inactive)	> 100 µM (inactive)	> 100 µM (inactive)
COc1ccc(Cc2cc(OC)c(OC)c(OC)c2)cc1O	< 0.021 µM (active)	53.8 µM (inactive)	0.167 µM (active)	< 0.01 µM (active)	< 0.01 µM (active)	42.5 µM (inactive)	< 0.01 µM (active)	< 0.01 µM (active)	0.0334 µM (active)	0.0982 µM (active)	25.2 µM (inactive)	0.0193 µM (active)	0.0365 µM (active)	68.1 µM (inactive)	< 0.0169 µM (active)	0.0177 µM (active)	0.0231 µM (active)	0.0352 µM (active)	3.95 µM (inactive)	0.116 µM (active)
COc1cc2c(c(OC)c1OC)-c1ccc(OC)c(=O)cc1C(NC(=O)COc1ccccc1)CC2 (stereo not given)	< 0.01 µM (active)	39.9 µM (inactive)	0.0101 µM (active)	< 0.01 µM (active)	< 0.01 µM (active)	3.11 µM (inactive)	< 0.01 µM (active)	< 0.01 µM (active)	< 0.01 µM (active)	< 0.01 µM (active)	< 0.01 µM (active)	< 0.01 µM (active)	< 0.01 µM (active)	0.3 µM (active)	0.0498 µM (active)	0.0162 µM (active)	< 0.01 µM (active)	< 0.01 µM (active)	< 0.029 µM (active)	< 0.01 µM (active)
C/C(=N\NC(=O)N/N=C(\C)c1ccccn1)c1ccccn1	0.0792 µM (active)	35.2 µM (inactive)	18.2 µM (inactive)	0.726 µM (active)	0.114 µM (active)	42 µM (inactive)	1.15 µM (inactive)	0.0526 µM (active)	0.188 µM (active)	20.3 µM (inactive)	> 71.4 µM (inactive)	0.139 µM (active)	45.1 µM (inactive)	> 52.6 µM (inactive)	1.92 µM (inactive)	9.18 µM (inactive)	43.5 µM (inactive)	2.19 µM (inactive)	> 100 µM (inactive)	2.66 µM (inactive)
Nc1ncnc2nn(C3OC(CO)C(O)C3O)nc12 (stereo not given)	3.64 µM (inactive)	4.21 µM (inactive)	3.67 µM (inactive)	6.52 µM (inactive)	10.3 µM (inactive)	28 µM (inactive)	24.2 µM (inactive)	9.1 µM (inactive)	21.8 µM (inactive)	23.1 µM (inactive)	10.2 µM (inactive)	10.1 µM (inactive)	7.57 µM (inactive)	9.06 µM (inactive)	36.6 µM (inactive)	21.1 µM (inactive)	5.26 µM (inactive)	29.6 µM (inactive)	23.2 µM (inactive)	10.4 µM (inactive)
CCOC(=O)c1oc2cc3c(c4c2c1-c1ccccc1N4C)C=CC(C)(C)O3	12.8 µM (inactive)	16.9 µM (inactive)	8.89 µM (inactive)	59.8 µM (inactive)	> 79.8 µM (inactive)	6.58 µM (inactive)	23.6 µM (inactive)	52.1 µM (inactive)	6.4 µM (inactive)	7.5 µM (inactive)	25.9 µM (inactive)	16.3 µM (inactive)	9.59 µM (inactive)	29.9 µM (inactive)	23.5 µM (inactive)	12.4 µM (inactive)	18.7 µM (inactive)	14.7 µM (inactive)	31.2 µM (inactive)	7.06 µM (inactive)
CC1(C)CCC2=C(O1)/C(=N\Nc1ccccc1)c1ccccc1C2=O	31.4 µM (inactive)	18.8 µM (inactive)	17.7 µM (inactive)	> 100 µM (inactive)	16.1 µM (inactive)	31.2 µM (inactive)	35.4 µM (inactive)	30.8 µM (inactive)	26.5 µM (inactive)	24.8 µM (inactive)	20 µM (inactive)	32.8 µM (inactive)	24 µM (inactive)	31.3 µM (inactive)	59.6 µM (inactive)	56.1 µM (inactive)	29.8 µM (inactive)	40.4 µM (inactive)	18.7 µM (inactive)	15.8 µM (inactive)
COc1ccc2c(c1)CCC(CN1CCN(CCOC(c3ccc(F)cc3)c3ccc(F)cc3)CC1)C2O (stereo not given)	6.75 µM (inactive)	11.2 µM (inactive)	5.93 µM (inactive)	21.1 µM (inactive)	15.6 µM (inactive)	14.2 µM (inactive)	14.4 µM (inactive)	16 µM (inactive)	30.3 µM (inactive)	13.3 µM (inactive)	3.93 µM (inactive)	19.1 µM (inactive)	14.9 µM (inactive)	15.2 µM (inactive)	14.6 µM (inactive)	14.9 µM (inactive)	18.1 µM (inactive)	17.2 µM (inactive)	12.9 µM (inactive)	11.7 µM (inactive)
C=C(C)C(=O)O[C@H]1CC2=CC(CC(C)=C[C@H]3OC(=O)C(=C)C13)OC2=O (stereo not given in full)	2.93 µM (inactive)	11.2 µM (inactive)	13.2 µM (inactive)	11.8 µM (inactive)	24.4 µM (inactive)	34.8 µM (inactive)	16.3 µM (inactive)	29.3 µM (inactive)	29.7 µM (inactive)	> 100 µM (inactive)	35.8 µM (inactive)	20.3 µM (inactive)	24.7 µM (inactive)	33.7 µM (inactive)	14.1 µM (inactive)	4.74 µM (inactive)	15.5 µM (inactive)	> 100 µM (inactive)	25.5 µM (inactive)	9.08 µM (inactive)
CC1(c2ccc(Cl)cc2)C=C(c2ccc(Cl)cc2)C(C#N)=C(C(C#N)C#N)N1.CNC (stereo not given)	34.4 µM (inactive)	14.2 µM (inactive)	16.6 µM (inactive)	12.7 µM (inactive)	17.3 µM (inactive)	15.1 µM (inactive)	21.2 µM (inactive)	17.5 µM (inactive)	19.5 µM (inactive)	16.1 µM (inactive)	17.9 µM (inactive)	17.3 µM (inactive)	8.75 µM (inactive)	18.1 µM (inactive)	24.1 µM (inactive)	5.02 µM (inactive)	16.1 µM (inactive)	18.2 µM (inactive)	17.5 µM (inactive)	13.8 µM (inactive)
